In the NIST ThermoML archive (doi:10.1021/je9003959):

What was measured:
[1] = 101 kPa, Liquid; for viscosity: Capillary tube (Ostwald / Ubbelohde) method; for speed of sound: Cylindrical cavity resonance method
[2] = refractive index (Na D-line) (dimensionless); details: 101.33 kPa, Liquid, Standard Abbe refractometry
[3] = xn = mol fraction of the nth substance listed; details: 101 kPa, Liquid, x2 = 0; for viscosity: Capillary tube (Ostwald / Ubbelohde) method
[4] = refractive index (Na D-line) (dimensionless); xn = mol fraction of the nth substance listed; details: 101 kPa, Liquid, Standard Abbe refractometry, x2 = 0

CCN1CCCC1=O [1-ethyl-2-pyrrolidinone]
Details	mass density, [1] [kg/m3]	refractive index, [2]	speed of sound, [1] [m/s]	viscosity, [1] [mPa·s]
293 K	1000.55	1.46461	1511.6	2.133
298 K	996.24	1.46192	1492.5	2.022
303 K	991.93	1.45791	1473.3	1.832
313 K	983.26	1.45415	1435.3	1.621
323 K	974.56	1.45147	1398	1.358

O [water] + CCN1CCCC1=O
Details	mass density, [3] [kg/m3]	refractive index, [4]	viscosity, [3] [mPa·s]
293 K	998.26	1.33298	1.009
298 K	–	1.33251	0.9029
303 K	–	1.33191	0.8133
313 K	992.26	1.33061	0.6693
323 K	–	1.32902	0.5611

Details	speed of sound [m/s]
[3], 313 K, Cylindrical cavity resonance method	1529.1

O [water]
Details	mass density, [1] [kg/m3]	refractive index, [2]	speed of sound, [1] [m/s]	viscosity, [1] [mPa·s]
293 K	998.26	1.33298	–	1.009
298 K	–	1.33251	–	0.9029
303 K	–	1.33191	–	0.8133
313 K	992.26	1.33061	1529.1	0.6693
323 K	–	1.32902	–	0.5611
